Tests used:
[1] = target: T1, Acyl-protein thioesterase 2 (Homo sapiens, UniProt O95372); test: Fluorescence Binding Assays; conditions: 25 °C
[2] = target: Acyl-protein thioesterase 2 [S122A] (Homo sapiens, UniProt O95372, S122A); test: Fluorescence Binding Assays; conditions: 25 °C
[3] = target: Acyl-protein thioesterase 2 [L78I,A85S,P86Q] (Homo sapiens, UniProt O95372, A85S/L78I/P86Q); test: Steady-State Kinetic Assays; conditions: pH 6.5
Experimental: (§1) Enzymes were diluted to 10 nM in PBS pH 6.5 (adjusted with sodium acetate) supplemented with 0.1 g/L pluronic F127 (Sigma). Varying concentrations of resorufin acetate (Sigma) in DMSO were added as 5 μL aliquots to clear-bottom 96-well plates (Greiner bio-one). Using a multi-channel pipette, 95 μL of enzyme was added to each well and quickly mixed by pipetting up and down several times. Each enzyme was assayed in 2 separate runs, each with 4 replicates per substrate concentration and 4 replicates of catalytic-dead enzyme.

[4] = target: Acyl-protein thioesterase 2 [L78I] (Homo sapiens, UniProt O95372, L78I); test: Steady-State Kinetic Assays; conditions: pH 6.5
Experimental: as §1

[5] = target: Acyl-protein thioesterase 2 [L78I,A85S] (Homo sapiens, UniProt O95372, A85S/L78I); test: Steady-State Kinetic Assays; conditions: pH 6.5
Experimental: as §1

[6] = target: Acyl-protein thioesterase 1 [L176M] (Homo sapiens, UniProt O75608, L176M); test: Steady-State Kinetic Assays; conditions: pH 6.5
Experimental: as §1

[7] = target: Acyl-protein thioesterase 1 [Q83P] (Homo sapiens, UniProt O75608, Q83P); test: Steady-State Kinetic Assays; conditions: pH 6.5
Experimental: as §1

[8] = target: Acyl-protein thioesterase 2 [H152R] (Homo sapiens, UniProt O95372, H152R); test: Steady-State Kinetic Assays; conditions: pH 6.5
Experimental: as §1

[9] = target: Acyl-protein thioesterase 1 [I75L] (Homo sapiens, UniProt O75608, I75L); test: Steady-State Kinetic Assays; conditions: pH 6.5
Experimental: as §1

[10] = target: Acyl-protein thioesterase 2 [L78I,A85S,P86Q,H152R,R153A,A154S] (Homo sapiens, UniProt O95372, A154S/A85S/H152R/L78I/P86Q/R153A); test: Steady-State Kinetic Assays; conditions: pH 6.5
Experimental: as §1

[11] = target: T1, Acyl-protein thioesterase 2; test: Steady-State Kinetic Assays; conditions: pH 6.5
Experimental: as §1

[12] = target: Acyl-protein thioesterase 1 (Homo sapiens, UniProt O75608); test: Steady-State Kinetic Assays; conditions: pH 6.5
Experimental: as §1

[13] = target: Acyl-protein thioesterase 1 [I75L,S82A] (Homo sapiens, UniProt O75608, I75L/S82A); test: Steady-State Kinetic Assays; conditions: pH 6.5
Experimental: as §1

[14] = target: Acyl-protein thioesterase 2 [M178L] (Homo sapiens, UniProt O95372, M178L); test: Steady-State Kinetic Assays; conditions: pH 6.5
Experimental: as §1

[15] = target: Acyl-protein thioesterase 1 [I75L,S82A,Q83P] (Homo sapiens, UniProt O75608, I75L/Q83P/S82A); test: Steady-State Kinetic Assays; conditions: pH 6.5
Experimental: as §1

[16] = target: Acyl-protein thioesterase 2 [P86Q] (Homo sapiens, UniProt O95372, P86Q); test: Steady-State Kinetic Assays; conditions: pH 6.5
Experimental: as §1

[17] = target: Acyl-protein thioesterase 1 [I75L,S82A,Q83P,R149H,A150R,S151A] (Homo sapiens, UniProt O75608, A150R/I75L/Q83P/R149H/S151A/S82A); test: Steady-State Kinetic Assays; conditions: pH 6.5
Experimental: as §1

T1 sequence (O95372 whole entry): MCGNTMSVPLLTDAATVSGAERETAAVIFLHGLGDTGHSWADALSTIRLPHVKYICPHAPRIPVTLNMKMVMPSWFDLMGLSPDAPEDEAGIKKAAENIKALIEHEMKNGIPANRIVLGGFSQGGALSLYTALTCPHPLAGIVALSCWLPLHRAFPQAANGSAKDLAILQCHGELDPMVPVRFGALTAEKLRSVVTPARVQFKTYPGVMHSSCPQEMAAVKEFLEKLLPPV
Sequence of Acyl-protein thioesterase 2 [S122A] (O95372 whole entry S122A): as the sequence (O95372 whole entry) above, with S122A counted along it
Sequence of Acyl-protein thioesterase 2 [P86Q] (O95372 whole entry P86Q): as the sequence (O95372 whole entry) above, with P86Q counted along it
Sequence of Acyl-protein thioesterase 2 [M178L] (O95372 whole entry M178L): as the sequence (O95372 whole entry) above, with M178L counted along it
Sequence of Acyl-protein thioesterase 2 [L78I,A85S,P86Q] (O95372 whole entry L78I/A85S/P86Q): as the sequence (O95372 whole entry) above, with L78I, A85S, P86Q counted along it
Sequence of Acyl-protein thioesterase 2 [L78I,A85S] (O95372 whole entry L78I/A85S): as the sequence (O95372 whole entry) above, with L78I, A85S counted along it
Sequence of Acyl-protein thioesterase 2 [L78I,A85S,P86Q,H152R,R153A,A154S] (O95372 whole entry L78I/A85S/P86Q/H152R/R153A/A154S): as the sequence (O95372 whole entry) above, with L78I, A85S, P86Q, H152R, R153A, A154S counted along it
Sequence of Acyl-protein thioesterase 2 [L78I] (O95372 whole entry L78I): as the sequence (O95372 whole entry) above, with L78I counted along it
Sequence of Acyl-protein thioesterase 2 [H152R] (O95372 whole entry H152R): as the sequence (O95372 whole entry) above, with H152R counted along it
Sequence of Acyl-protein thioesterase 1 [Q83P] (O75608 whole entry Q83P): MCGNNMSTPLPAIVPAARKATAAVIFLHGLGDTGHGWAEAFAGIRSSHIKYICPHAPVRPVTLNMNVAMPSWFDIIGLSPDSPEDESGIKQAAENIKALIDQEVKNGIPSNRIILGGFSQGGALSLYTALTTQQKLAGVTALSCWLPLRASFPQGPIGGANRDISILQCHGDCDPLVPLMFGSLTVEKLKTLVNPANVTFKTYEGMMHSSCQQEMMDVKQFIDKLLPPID
Sequence of Acyl-protein thioesterase 1 (O75608 whole entry): as the sequence (O75608 whole entry Q83P) above, with P83Q counted along it
Sequence of Acyl-protein thioesterase 1 [I75L] (O75608 whole entry I75L): as the sequence (O75608 whole entry Q83P) above, with I75L, P83Q counted along it
Sequence of Acyl-protein thioesterase 1 [L176M] (O75608 whole entry L176M): as the sequence (O75608 whole entry Q83P) above, with P83Q, L176M counted along it
Sequence of Acyl-protein thioesterase 1 [I75L,S82A] (O75608 whole entry I75L/S82A): as the sequence (O75608 whole entry Q83P) above, with I75L, S82A, P83Q counted along it
Sequence of Acyl-protein thioesterase 1 [I75L,S82A,Q83P] (O75608 whole entry I75L/S82A/Q83P): as the sequence (O75608 whole entry Q83P) above, with I75L, S82A counted along it
Sequence of Acyl-protein thioesterase 1 [I75L,S82A,Q83P,R149H,A150R,S151A] (O75608 whole entry I75L/S82A/Q83P/R149H/A150R/S151A): as the sequence (O75608 whole entry Q83P) above, with I75L, S82A, R149H, A150R, S151A counted along it

SMILES	IC50 [1]	Kd [1]	IC50 [2]	Kd [2]	Ki [3]	Ki [4]	Ki [5]	Ki [6]	Ki [7]	Ki [8]	Ki [9]	Ki [10]	Ki [11]	Ki [12]	Ki [13]	Ki [14]	Ki [15]	Ki [16]	Ki [17]
COc1ccc(N2CCN(C(=O)c3cc4c(s3)-c3ccccc3SC4)CC2)cc1 [ML349-thioether]	> 100 µM	> 10 µM	> 100 µM	> 10 µM	–	–	–	–	–	–	–	–	–	–	–	–	–	–	–
COc1ccc(N2CCN(C(=O)c3cc4c(s3)-c3ccccc3S(=O)(=O)C4)CC2)cc1 [ML349]	1.1 µM	0.24 µM	1 µM	0.16 µM	> 10 µM	> 10 µM	> 10 µM	> 10 µM	> 10 µM	0.66 µM	0.37 µM	> 10 µM	0.12 µM	> 10 µM	0.28 µM	0.2 µM	1.2 µM	0.13 µM	0.18 µM
O=C(CN1CCN(C(=O)c2ccco2)CC1)Nc1cc(C(F)(F)F)ccc1Cl [ML348]	–	–	–	–	3.4 µM	5.8 µM	6.2 µM	–	–	> 10 µM	–	0.43 µM	> 10 µM	–	–	> 10 µM	–	> 10 µM	–
O=C1C=CC2C(=C1)Oc1cc(O)ccc1C2c1cc(C(=O)NCCOCCOCCOCCn2cc(COc3ccc(N4CCN(C(=O)c5cc6c(s5)-c5ccccc5S(=O)(=O)C6)CC4)cc3)nn2)ccc1C(=O)O (stereo not drawn)	–	1.02 µM	–	0.77 µM	–	–	–	–	–	–	–	–	–	–	–	–	–	–	–
